Data set [1] relates to FGGsh155:CB[8] hexamer (FGG-tagged phi class glutathione S-transferase GSTF mutant sh155, SEQ ID NO: 2, with cucurbit[8]uril 1:1). Kind of data set: Kinetic inhibition analysis with butachlor, hexamer FGGsh155:CB[8]. Format: biochemical. The settings on record: constant GSH, variable CDNB. The text has this: (§1) FIG. 22 (A-J): Kinetic inhibition analysis of the dimer enzyme sh155 (FIG. 22A, 22C, 22E, 22G, 22I) and the hexamer FGGsh155:CB[8] (FIGS. 22B, 22D, 22F, 22H, 22J). A. & B. Lineweaver-Burk plots for the inhibition of the enzymes by different concentrations of butachlor, at constant concentration of GSH and variable concentration of CDNB. C. & D. Secondary (derivative) graph. The slope values were derived from the Lineweaver-Burk graphs (A) & (B). The intersection point with the x axis corresponds to Ki. E. & F. Secondary (derivative) graph where the data are derived from the Lineweaver-Burk graphs (A) & (B). The intersection point with the x axis corresponds to K. G. & H. Lineweaver-Burk plots for the inhibition of the enzymes by different concentrations of butachlor, at constant concentration of CDNB and variable concentration of GSH. […]. Secondary (derivative) graph. The slope values were derived from the Lineweaver-Burk graphs […], and the intersection point with the x axis corresponds to Ki.
(§2) Kinetic analysis in presence of butachlor aimed to characterize of the type of inhibition, thus the binding site of the inhibitor, as well as to identify possible differences in kinetic behavior between the GST dimer form (sh155) and the hexamer FGGsh155:CB[8] that was used in the immobilization. […]

In data set [2] the test system is Immobilized FGGsh155:CB[8] hexamer (GSTF mutant sh155, FGG-tagged, SEQ ID NO: 2, with cucurbit[8]uril 1:1, on glutaraldehyde-crosslinked chitosan). Nature of the data set: Butachlor inhibition (IC50) of immobilized FGGsh155:CB[8]. The format is biochemical. The settings on record: immobilized on chitosan carrier vs free enzyme. How it is done: FIG. 21 (A-B): Dose-response inhibition curves of FGGsh155:CB[8] due to the herbicide butachlor for the determination of IC50 value. FIG. 21A. before and FIG. 21B. after immobilization. The data represent the mean±SD (N=3).
(§3) The half maximal inhibitory concentration (IC50), namely the inhibitor concentration that leads to 50% inhibition of the enzyme activity of FGGsh155:CB[8], was determined for constant substrate concentrations and varying butachlor concentrations. The utilised substrate concentrations were equal to the kinetic constant value of S0.5 for CDNB and 2.5 times the CDNB concentration for GSH. The correlation between the butachlor concentration from 0 to 600 nM (0 to 0.6 μM) and the remaining activity (%) of the immobilized enzyme was linear, thus standard curves for known herbicide concentrations were developed. The methodology was tested for drinking water samples derived from the Athens water supply network, as well as commercial mineral water (see Example 11). The results were analysed with the Graphpad Prism software.

The test system of data set [3] is sh155 dimer (phi class glutathione S-transferase GSTF mutant derived by DNA shuffling, SEQ ID NO: 2). Nature of the data set: Kinetic inhibition analysis with butachlor, dimer sh155. Format: biochemical. The settings on record: constant GSH, variable CDNB.
From the text: as §1, §2

For data set [4] the following is noted: buffer; cited from earlier work.
For data set [5], the target named is FGGsh155:CB[8] (Triticum aestivum, UniProt Z9G7Y6U750). Kind of data set: Inhibition of free FGGsh155:CB[8] by butachlor (IC50, kinetic inhibition analysis). The format is biochemical. How it is done:
as §3, with “The correlation between the butachlor concentration from 0 to 600 nM (0 to 0.6 μM) and the remaining activity (%) of the immobilized enzyme was linear, thus standard curves for known herbicide concentrations were developed.” left out
(§4) Kinetic analysis in presence of butachlor aimed to characterize of the type of inhibition, thus the binding site of the inhibitor, as well as to identify possible differences in kinetic behavior between the GST dimer form (sh155) and the hexamer FGGsh155:CB[8] that was used in the immobilization. […] In the mixed inhibition pattern all of the kinetic constants (Km, kcat) change, and the inhibitor is able to bind to both the free enzyme (Ki) and the enzyme-substrate complex (Ki′) with different affinities. […] This type of inhibition is a sub-case of the mixed inhibition pattern where Ki=Ki′, i.e. the velocity of the reaction is decreased without affecting the affinity with the substrate. In this inhibition type, the inhibitor and the substrate bind independently at different enzyme sites.

In data set [6] the target is T1, immobilized FGGsh155:CB[8] (Triticum aestivum, UniProt Z9G7Y6U750). Nature of the data set: Inhibition of immobilized FGGsh155:CB[8] by butachlor (IC50). Format: biochemical. The conditions noted are these: after immobilization on the chitosan carrier. As for the experimental part:
as §3

Data set [7] concerns human lymphocytes. The conditions noted are these: cited from earlier work.
Data set [8] concerns the target T1, immobilized FGGsh155:CB[8]. Kind of data set: Determination of butachlor in spiked water samples with the immobilized enzyme biosensor. As for the experimental part:
as §3
The basis for the detection of the herbicide butachlor in water samples was the determination of inhibition induced in the immobilized enzyme form. […] The linear response of inhibition of the immobilized enzyme due to butachlor was described by the equation y=−101.3x+98.07, R^2=0.991 (FIG. 23A). This observation led to the development of a methodology for determination of butachlor in drinking water samples based on the detection of inhibition as determined by a standard reference curve. Accordingly, standard curves were generated for spiked, with known concentrations of butachlor, samples of drinking water from the Athens' supply network (y=−81.84x+98.81, R^2=0.997) and bottled mineral water (y=−72.69x+99.46, R^2=0.995) (FIG. 23B). The detection range of butachlor with this methodology was determined up to 180 μg/L (600 nM) in water samples, with the acceptable amount of a pesticide in surface water at 1.0 μg/L and in drinking water at 0.1 μg/L (Council Directive 98/83/EC). The detection range up to 0.6 μM (180 μg/L) of the developed biosensor, with detection limit at approximately 31 μg/L for butachlor, achieves comparatively high sensitivity and selectivity.
The methodology was evaluated with recovery experiments of spiked drinking water samples, with known but random concentrations of butachlor within the range of the standard curve. […] The correlation between the added and found butachlor tested concentrations for network supply water (R^2 0.9993, p<0.0001) and mineral water (R^2 0.9987, p<0.0001) is depicted in FIG. 23C & 23D.

The target in data set [9] is sh155 (Triticum aestivum, UniProt Z9G7Y6U750). Nature of the data set: Kinetic inhibition analysis of dimer sh155 by butachlor. Format: biochemical.
From the text: as §4

Setting [10] is: towards CDNB (variable CDNB, constant GSH), binding to free enzyme.
Where [11] appears, read: towards CDNB, binding to enzyme-substrate complex.
Where [12] appears, read: towards GSH (variable GSH, constant CDNB).

Molecules are shown by their SMILES. Values joined by “and” are separate entries in the source; they are usually repeats but may differ in a detail not shown here. Equal values may be shown once.

As for `CCCCOCN(C(=O)CCl)c1c(CC)cccc1CC` [Butachlor, 2-chloro-2,6-diethyl-N-butoxymethyl-acetanilide], the “type of inhibition towards CDNB” value in [1] and in data set [3] was “mixed type inhibition with Ki<Ki′” throughout. The “increase in sensitivity for butachlor after immobilization (IC50 immobilized vs free enzyme)” value in data set [2] is “ten-fold increase in sensitivity”.

Turning to `CCCCOCN(C(=O)CCl)c1c(CC)cccc1CC` [butachlor, 2-chloro-2,6-diethyl-N-butoxymethyl-acetanilide], the half-life result in data set [4] is given as “up to 2.5 days”. Besides, the “type of inhibition towards GSH” value in data set [5] and in [9] was “non-competitive inhibition” each time. The “type of inhibition towards the CDNB substrate” value in [5] and in [9] was “mixed type inhibition” throughout. Further, the IC50 (as a rule, the concentration that inhibits the measured activity by half) came to 5.14 ± 0.16 µM in data set [5] (free enzyme, before immobilization) and 0.56 ± 0.02 µM in [6]. Also, the Ki (as a rule, a dissociation constant, usually derived from enzyme kinetics or from competition with a known ligand) in [5] (setting [10]) is 4.42 µM; in data set [5] (setting [11]), 21.1 µM; in data set [5] (setting [12]) it was 13.2 µM; in data set [9] (setting [10]), 5.92 µM; in data set [9] (setting [11]), 22.6 µM; in data set [9] (setting [12]) it was 13.3 µM. Also, the “frequency of chromosomal abnormalities” value in [7] is “dose-dependent increase in the frequency of chromosomal abnormalities”. In addition, the Found butachlor in data set [8] (Athens water supply network, added 0.05 μM) was found to be 0.046 ± 0.003 µM; in data set [8] (Athens water supply network, added 0.2 μM) it was 0.191 ± 0.001 µM; in [8] (Athens water supply network, added 0.3 μM), 0.308 ± 0.008 µM; in data set [8] (Athens water supply network, added 0.4 μM) it was 0.416 ± 0.005 µM; in [8] (Athens water supply network, added 0.6 μM) it was 0.617 ± 0.003 µM; in [8] (Bottled mineral water, added 0.1 μM) it was 0.095 ± 0.005 µM. Further, the Found butachlor in data set [8] (Bottled mineral water, added 0.2 μM) stood at 0.215 ± 0.005 µM; in data set [8] (Bottled mineral water, added 0.3 μM), 0.307 ± 0.005 µM; in [8] (Bottled mineral water, added 0.4 μM), 0.413 ± 0.012 µM; in data set [8] (Bottled mineral water, added 0.55 μM), 0.56 ± 0.010 µM. Further, the detection limit result in data set [8] (developed biosensor) is listed as “approximately 31 μg/L”. For the same molecule, the detection range result in [8] (water samples) is “up to 180 μg/L and ≤ 600 nM”.
